In PubChem BioAssay AID1259408 (Genetic Toxicology Data Bank (GENE-TOX), 2018):
Activity calls are given as the source filed them. How the calls were made is not given here.

Tested on: GENE-TOX genotoxicity assays, various organisms and cells
Assay: GENE-TOX mutagenicity studies
[1] = Species/Cell Type: Human bone marrow, Assay Type: Chromosome aberrations in vivo, Assay Code: CY5+, Evaluation Type: Evaluation A (Pre-1980)
[2] = Species/Cell Type: Nonhuman bone marrow, Assay Type: Chromosome aberrations, in vivo, Assay Code: CY#+D, Dose Response: With dose response, Evaluation Type: Evaluation A (Pre-1980)
[3] = Species/Cell Type: Saccharomyces cerevisiae, Assay Type: Reverse gene mutation, Assay Code: YER+, Evaluation Type: Evaluation A (Pre-1980)
[4] = Species/Cell Type: Salmonella typhimurium (one or more of the five standard strains: TA98, TA100, TA1535, TA1537, and TA1538), Assay Type: Histidine reverse gene mutation, Ames assay, Assay Code: SALT, Evaluation Type: Evaluation A (Pre-1980)
[5] = Species/Cell Type: Chinese hamster lung (V79) cells, Assay Type: Forward gene mutation at the HPRT or ouabain locus, Assay Code: V79-*, Activation: With metabolic activation, Evaluation Type: Evaluation A (Pre-1980)

O=P1(N(CCCl)CCCl)NCCCO1 (configuration not stated)
mutagenic call (Species/Cell Type: Arabidopsis species, Assay Type: Gene mutation, Assay Code: ARM-, Evaluation Type: Evaluation A (Pre-1980)): inactive; negative
mutagenic call (Species/Cell Type: Chinese hamster ovary (CHO) cells, Assay Type: Forward gene mutation at the HPRT locus, Assay Code: CHO+*, Activation: With metabolic activation, Evaluation Type: Evaluation B (Post-1980)): active; positive
mutagenic call (Species/Cell Type: Drosophila melanogaster, Assay Type: Sex-linked recessive lethal gene mutation, Assay Code: SRL+, Evaluation Type: Evaluation A (Pre-1980)): active; positive
mutagenic call (Species/Cell Type: Escherichia coli WP2, Assay Type: Tryptophan reverse gene mutation, Assay Code: WP2+, Evaluation Type: Evaluation A (Pre-1980)): active; positive
mutagenic call (Species/Cell Type: Escherichia coli WP2 UVRA, Assay Type: Tryptophan reverse gene mutation, Assay Code: WPU+, Evaluation Type: Evaluation A (Pre-1980)): active; positive
mutagenic call (Species/Cell Type: Escherichia coli polA (W3110 vs P3478), Assay Type: Rec-assay, DNA effects (bacterial DNA repair), Assay Code: RE2+, Evaluation Type: Evaluation A (Pre-1980)): active; positive
mutagenic call (Species/Cell Type: F1 mouse, Sex: Male, Assay Type: Sperm morphology, Assay Code: SPF+, Evaluation Type: Evaluation A (Pre-1980)): active; positive
mutagenic call (Species/Cell Type: Fischer rat embryo (RLV/1706) cells, Assay Type: Cell transformation, viral enhanced, Assay Code: CTR+, Evaluation Type: Evaluation A (Pre-1980)): active; positive
mutagenic call [1]: active; positive
mutagenic call (Species/Cell Type: Human cell culture, Assay Type: Chromosome aberrations in vitro, Assay Code: CYZ+, Evaluation Type: Evaluation A (Pre-1980)): active; positive
mutagenic call (Species/Cell Type: Human diploid fibroblasts, Assay Type: Unscheduled DNA synthesis (UDS) in vitro, DNA effects, Assay Code: UDHT, Evaluation Type: Evaluation A (Pre-1980)): no conclusion
mutagenic call (Species/Cell Type: Human lymphocytes or leukocytes, Assay Type: Chromosome aberrations in vitro, Assay Code: CY7+D, Dose Response: With dose response, Evaluation Type: Evaluation A (Pre-1980)): active; positive
mutagenic call (Species/Cell Type: Human lymphocytes or leukocytes, Assay Type: Chromosome aberrations in vivo, Assay Code: CY8+, Evaluation Type: Evaluation A (Pre-1980)): active; positive
mutagenic call (Species/Cell Type: Human lymphocytes, Assay Type: Sister-chromatid exchange (SCE) in vitro, Assay Code: SCL+D, Dose Response: With dose response, Evaluation Type: Evaluation B (Post-1980)): active; positive
mutagenic call (Species/Cell Type: Human lymphocytes, Assay Type: Sister-chromatid exchange (SCE) in vitro, Assay Code: SCLT, Evaluation Type: Evaluation A (Pre-1980)): no conclusion
mutagenic call (Species/Cell Type: Human lymphocytes, Assay Type: Sister-chromatid exchange (SCE) in vivo, Assay Code: SCY+, Evaluation Type: Evaluation B (Post-1980)): active; positive
mutagenic call (Species/Cell Type: Human, Assay Type: Sister-chromatid exchange (SCE) in vitro, Assay Code: SC1+D, Dose Response: With dose response, Evaluation Type: Evaluation B (Post-1980)): active; positive
mutagenic call (Species/Cell Type: Human, Sex: Male, Assay Type: Sperm morphology, Assay Code: SPH+, Evaluation Type: Evaluation A (Pre-1980)): active; positive
mutagenic call (Species/Cell Type: Mammalian germ cells, Sex: Male, Assay Type: Chromosome aberrations in vivo, Assay Code: CY9+, Evaluation Type: Evaluation A (Pre-1980)): active; positive
mutagenic call (Species/Cell Type: Mammalian oocytes or early embryo, Assay Type: Chromosome aberrations in vivo, Assay Code: CYO+D, Dose Response: With dose response, Evaluation Type: Evaluation A (Pre-1980)): active; positive
mutagenic call (Species/Cell Type: Mammalian polychromatic erythrocytes, Assay Type: Micronucleus test, chromosome aberrations, Assay Code: MNT+, Evaluation Type: Evaluation A (Pre-1980)): active; positive
mutagenic call (Species/Cell Type: Mouse (BALB/c-3T3) cells, Assay Type: Cell transformation, Assay Code: CTB-, Evaluation Type: Evaluation A (Pre-1980)): inactive; negative
mutagenic call (Species/Cell Type: Mouse (C3H/10T1/2) cells, Assay Type: Cell transformation, Assay Code: CTH+D*, Activation: With metabolic activation, Dose Response: With dose response, Evaluation Type: Evaluation A (Pre-1980)): active; positive
mutagenic call (Species/Cell Type: Mouse germ cells, Sex: Male, Assay Type: Unscheduled DNA synthesis (UDS) in vivo, DNA effects, Assay Code: UDT+, Evaluation Type: Evaluation A (Pre-1980)): active; positive
mutagenic call (Species/Cell Type: Mouse lymphoma (L5178Y) cells, Assay Type: Forward gene mutation at the thymidine kinase (TK) locus, chromosome aberrations, Assay Code: L51+*, Activation: With metabolic activation, Evaluation Type: Evaluation A (Pre-1980)): active; positive
mutagenic call (Species/Cell Type: Mouse, Sex: Female, Assay Type: Spot test, gene mutation, Assay Code: MST+, Evaluation Type: Evaluation A (Pre-1980)): active; positive
mutagenic call (Species/Cell Type: Mouse, Sex: Male, Assay Type: Heritable translocation test, chromosome aberrations, Assay Code: HTT+, Evaluation Type: Evaluation A (Pre-1980)): active; positive
mutagenic call (Species/Cell Type: Mouse, Sex: Male, Assay Type: Specific locus test, gene mutation, Assay Code: SLT+, Evaluation Type: Evaluation A (Pre-1980)): active; positive
mutagenic call (Species/Cell Type: Mouse, Sex: Male, Assay Type: Sperm morphology, Assay Code: SPI+, Evaluation Type: Evaluation A (Pre-1980)): active; positive
mutagenic call [2]: active; positive
call (Species/Cell Type: Nonhuman, Assay Type: In vivo carcinogenicity studies, Assay Code: CCG+, Evaluation Type: Evaluation A (Pre-1980)): active; positive
mutagenic call (Species/Cell Type: Nonhuman, Assay Type: Sister-chromatid exchange (SCE) in vitro, Assay Code: SC2+D, Dose Response: With dose response, Evaluation Type: Evaluation A (Pre-1980)): active; positive
mutagenic call (Species/Cell Type: Nonhuman, Assay Type: Sister-chromatid exchange (SCE) in vivo, Assay Code: SC3+D, Dose Response: With dose response, Evaluation Type: Evaluation A (Pre-1980)): active; positive
mutagenic call (Species/Cell Type: Rabbit, Sex: Male, Assay Type: Sperm morphology, Assay Code: SPRT, Evaluation Type: Evaluation A (Pre-1980)): no conclusion
mutagenic call (Species/Cell Type: Rat, Sex: Male, Assay Type: Sperm morphology, Assay Code: SPA+, Evaluation Type: Evaluation A (Pre-1980)): active; positive
mutagenic call (Species/Cell Type: Rodents, Sex: Male, Assay Type: Dominant lethal test, Assay Code: DLT+D, Dose Response: With dose response, Evaluation Type: Evaluation A (Pre-1980)): active; positive
mutagenic call (Species/Cell Type: Saccharomyces cerevisiae, Assay Type: Forward gene mutation, Assay Code: YEF+, Evaluation Type: Evaluation A (Pre-1980)): active; positive
mutagenic call (Species/Cell Type: Saccharomyces cerevisiae, Assay Type: Mitotic recombination or gene conversion, Assay Code: YEC+*, Activation: With metabolic activation, Evaluation Type: Evaluation A (Pre-1980)): active; positive
mutagenic call (Species/Cell Type: Saccharomyces cerevisiae, Assay Type: Mitotic recombination or gene conversion, Assay Code: YEH+, Evaluation Type: Evaluation A (Pre-1980)): active; positive
mutagenic call [3]: active; positive
mutagenic call (Species/Cell Type: Salmonella typhimurium (one or more of the five standard strains: TA98, TA100, TA1535, TA1537, and TA1538), Assay Type: Histidine reverse gene mutation, Ames assay, Assay Code: SAL+*, Activation: With metabolic activation, Evaluation Type: Evaluation A (Pre-1980)): active; positive
mutagenic call (Species/Cell Type: Salmonella typhimurium, Escherichia coli, Serratia marcesens, human lymphoid cells, Saccharomyces cerevisiae, Chinese ha, Assay Type: Forward and reverse gene mutation, mitotic recombination and gene conversion, DNA effects, chromosome aberrations, host-, Assay Code: HM6+, Evaluation Type: Evaluation A (Pre-1980)): active; positive
mutagenic call (Species/Cell Type: Salmonella typhimurium, Saccharomyces cerevisiae, human leukocytes and diploid fibroblasts, Assay Type: Forward and reverse gene mutation, mitotic recombination and gene conversion, DNA effects, body fluid assay, Assay Code: BFJ+, Evaluation Type: Evaluation A (Pre-1980)): active; positive

c1ccc2nc3c(ccc4ccccc43)cc2c1
mutagenic call (Species/Cell Type: Nonhuman, Assay Type: Sister-chromatid exchange (SCE) in vitro, Assay Code: SC2+D, Dose Response: With dose response, Evaluation Type: Evaluation B (Post-1980)): active; positive

Oc1cc(Cl)c(-c2cc(Cl)ccc2Cl)cc1Cl
mutagenic call [4]: no conclusion

Clc1ccc(Cl)cc1
mutagenic call (Species/Cell Type: Allium cepa, Assay Type: Chromosome aberrations, Assay Code: ALC+, Evaluation Type: Evaluation A (Pre-1980)): active; positive
mutagenic call (Species/Cell Type: Mammalian polychromatic erythrocytes, Assay Type: Micronucleus test, chromosome aberrations, Assay Code: MNT+, Evaluation Type: Evaluation B (Post-1980)): active; positive

O=c1c(=O)c2c3ccccc3cc3ccc4cccc1c4c32
mutagenic call (Species/Cell Type: Chinese hamster lung (V79) cells, Assay Type: Forward gene mutation at the HPRT or ouabain locus, Assay Code: V79-, Evaluation Type: Evaluation A (Pre-1980)): inactive; negative
mutagenic call [4]: no conclusion

C=CCc1ccccc1O
mutagenic call (Species/Cell Type: Human lymphocytes, Assay Type: Sister-chromatid exchange (SCE) in vitro, Assay Code: SCLT, Evaluation Type: Evaluation B (Post-1980)): no conclusion
mutagenic call (Species/Cell Type: Human, Assay Type: Sister-chromatid exchange (SCE) in vitro, Assay Code: SC1T, Evaluation Type: Evaluation B (Post-1980)): no conclusion

Cc1c2ccccc2c(C)c2c1ccc1ccc(F)cc12
mutagenic call [5]: inactive; negative

CCCCCCC(=O)N(C)N=O
mutagenic call [3]: active; positive

COc1ccc(C(=O)/C(Br)=C/C(=O)O)cc1
mutagenic call [1]: active; positive
mutagenic call [2]: active; positive

Oc1cc2cc3ccccc3cc2c2ccccc12
mutagenic call (Species/Cell Type: Chinese hamster lung (V79) cells, Assay Type: Forward gene mutation at the HPRT or ouabain locus, Assay Code: V79+, Evaluation Type: Evaluation A (Pre-1980)): active; positive
mutagenic call (Species/Cell Type: Mouse prostate cells, Assay Type: Cell transformation, Assay Code: CTM-, Evaluation Type: Evaluation A (Pre-1980)): inactive; negative
mutagenic call (Species/Cell Type: Syrian hamster embryo (SHE) cells, Assay Type: Cell transformation, clonal assay, Assay Code: CTC+, Evaluation Type: Evaluation A (Pre-1980)): active; positive

CCCCCOC(=O)COc1cc(Cl)c(Cl)cc1Cl
mutagenic call (Species/Cell Type: Saccharomyces cerevisiae, Assay Type: Mitotic recombination or gene conversion, Assay Code: YEC-, Evaluation Type: Evaluation A (Pre-1980)): inactive; negative

CCN(CCCl)CCCNc1c2ccccc2nc2ccccc12
mutagenic call (Species/Cell Type: Chinese hamster ovary (CHO) cells, Assay Type: Forward gene mutation at the HPRT locus, Assay Code: CHO+, Evaluation Type: Evaluation B (Post-1980)): active; positive

Nc1nc(N)c2cc(S(=O)(=O)c3ccc4ccccc4c3)ccc2n1
mutagenic call [4]: no conclusion

Cc1c2ccccc2c(C)c2c1ccc1cccc(C)c12
mutagenic call [5]: inactive; negative
